Source: patent US9221765B2, “Inhibition and dispersion of bacterial biofilms with benzimidazole derivatives” (North Carolina State University, priority 2009, dated 2015)
Structures can show the parent of a compound that is named as a salt.

Columns and labels:
[1] = tested on: MRSA; assay: Inhibition of MRSA biofilm formation (crystal violet); format: cell-based, Staphylococcus aureus; conditions: Staphylococcus aureus
Method: (§1) A dose-response study was then initiated in which both the IC50 and EC50 value of each compound towards the bacterial strains were determined (Table 1). Here, IC50 is defined as the concentration of compound that inhibits 50% biofilm development while EC50 is defined as the concentration of compound that disperses 50% of a pre-formed biofilm.
(§2) Procedure to Determine the Inhibitory Effect of Test Compounds on E. faecium, MRSA, S. epidermidis, PAO1 and MDRAB Biofilm Formation:
(§3) Inhibition assays were performed by taking an overnight culture of bacterial strain and subculturing it at an OD600 of 0.01 into the necessary media (brain heart infusion for E. faecium, tryptic soy broth with a 0.5% glucose supplement (TSBG) for MRSA, Luria-Bertani (LB) media for MDRAB, Luria-Bertani media without NaCl (LBNS) for PAO1 and tryptic soy broth with a 0.5% glucose supplement and a 3.0% NaCl supplement (TGN) for S. epidermidis. Stock solutions of predetermined concentrations of the test compound were then made in the necessary media. These stock solutions were aliquoted (100 μL) into the wells of the 96-well PVC microtiter plate. Sample plates were then wrapped in GLAD Press n′ Seal® followed by an incubation under stationary conditions for 24 h at 37° C. After incubation, the media was discarded from the wells and the plates were washed thoroughly with water. Plates were then stained with 100 μL of 0.1% solution of crystal violet (CV) and then incubated at ambient temperature for 30 min. Plates were washed with water again and the remaining stain was solubilized with 200 μL of 95% ethanol. A sample of 125 μL of solubilized CV stain from each well was transferred to the corresponding wells of a polystyrene microtiter dish. Biofilm inhibition was quantitated by measuring the OD540 of each well in which a negative control lane wherein no biofilm was formed served as a background and was subtracted out.
as §3, with “2-(2-amino-1H-benzo[d]imidazol-6-ylcarbamoyl)-3,4,5,6-tetrachlorobenzoic acid hydrochloride” for “test compound”, “media. Samples were then doped with 10.0 μM FeSO4 with samples with no test compound to examine effects of 10.0 μM FeSO4 on biofilm formation.” for “media.”

[2] = tested on: S. epidermidis; assay: Inhibition of S. epidermidis biofilm formation (crystal violet); format: cell-based, Staphylococcus epidermidis; conditions: Staphylococcus epidermidis
Method: as §1, §2, §3
as §3, with “2-(2-amino-1H-benzo[d]imidazol-6-ylcarbamoyl)-3,4,5,6-tetrachlorobenzoic acid hydrochloride” for “test compound”, “media. Samples were then doped with 10.0 μM FeSO4 with samples with no test compound to examine effects of 10.0 μM FeSO4 on biofilm formation.” for “media.”

[3] = tested on: E. faecium, MRSA and S. epidermidis; assay: Mitigating effects of zinc on biofilm formation inhibition; format: cell-based; conditions: for effect of Zn(II) on ability to inhibit biofilm development: 50.0 μM compound, 25.0-200.0 μM ZnCl2, dose-dependent, hydrochloride
From the text: Next, Zn(II) homeostasis was examined. Zn(II) has been implicated in the pathogenesis of Gram-positive bacterial infections and may be an important regulator of biofilm formation (Conrady, D. G.; Brescia, C. C.; Horii, K.; Weiss, A. A.; Hassett, D. J.; Herr, A. B. Proceedings of the National Academy of Sciences of the United States of America 2008, 105, 19456-19461).
Procedure to Determine the Mitigating Effects of Zinc on E. faecium, MRSA and S. epidermidis Biofilm Formation Inhibition Induced by 2-(2-Amino-1H-Benzo[d]Imidazol-6-Ylcarbamoyl)-3,4,5,6-Tetrachlorobenzoic Acid Hydrochloride:
as §3, with “50.0 μM 2-(2-amino-1H-benzo[d]imidazol-6-ylcarbamoyl)-3,4,5,6-tetrachlorobenzoic acid hydrochloride” for “predetermined concentrations of the test compound”, “media. Samples were then doped with 25.0, 50.0, 75.0, 100.0, 150.0 and 200.0 μM ZnCl2 with controls in which no test compound was added to examine effects of 200.0 μM ZnCl2 on biofilm formation.” for “media.”

[4] = Divalent zinc binding via 1H NMR spectroscopy; conditions: 0, 0.5, 1.0 equivalents ZnCl2; DMSO
Method: (§4) Given this Zn(II)-dependence, the ability of 3 to bind zinc directly was determined to ascertain if the mechanism was potentially occurring via a Zn(II)-binding mechanism. To answer this question, an ^1H NMR binding experiment was performed in which the chemical shifts of 3 were measured in the presence of 0 equivalents, 0.5 equivalents, and 1.0 equivalents ZnCl2. […] As a control, the same experiment was performed with FeSO4.
Procedure to Determine the Divalent Zinc Binding Effects of Test Compounds via ^1H NMR Spectroscopy:
^1H NMR Spectra were obtained of the test compounds in DMSO on a 400 MHz NMR in the absence and in the presence of one equivalent of ZnCl2. 2-(2-amino-1H-benzo[d]imidazol-5-ylcarbamoyl)-3,4,5,6-tetrachlorobenzoic acid hydrochloride was tested at a 228 mM. 2,3,4,5-tetrachloro-6-(phenylcarbamoyl)benzoic acid was tested at 275 mM. 1H-benzo[d]imidazol-2-amine hydrochloride was tested at 649 mM.

[5] = 1H NMR binding control experiment with FeSO4; conditions: 0, 0.5, or 1.0 equivalents FeSO4
Method: as §4

In the case of `Nc1nc2ccc(NC(=O)c3c(Cl)c(Cl)c(Cl)c(Cl)c3C(=O)O)cc2[nH]1` [Compound 3, 2-(2-amino-1H-benzo[d]imidazol-6-ylcarbamoyl)-3,4,5,6-tetrachlorobenzoic acid hydrochloride], the IC50 [1] is reported as 860 nM, the IC50 ([1]; concentration that inhibits 50% biofilm development) is reported as 890 ± 10 nM and the IC50 [2] is reported as 570 nM. For the same compound, the “effect of Zn(II) on ability to inhibit biofilm development” value [3] was “suppressed the ability of 3 to inhibit biofilm development”, the “effect of Zn(II) on ability to inhibit biofilm development” value ([3]; listed as 2-(2-amino-1H-benzo[d]imidazol-6-ylcarbamoyl)-3,4,5,6-tetrachlorobenzoic acid hy) was “mitigate the biofilm inhibition response” and the “biofilm formation inhibition when supplemented with ZnCl2” value ([3]; 200 μM ZnCl2) was “unable to inhibit biofilm formation”. The “zinc binding, change of 1H NMR signals” value [4] was “directly binding ZnCl2” and the “change in NMR signal with FeSO4” value [5] was “No change”.
